{
  "source": "paper PMC4666608",
  "about": "“Metabolic Profiling of Chicken Embryos Exposed to Perfluorooctanoic Acid (PFOA) and Agonists to Peroxisome Proliferator-Activated Receptors” (PLoS ONE, 2015)",
  "tested_on": "chicken embryos",
  "assay": "Metabolic profiling of allantoic fluid (GC-MS, LC-MS, OPLS-DA)",
  "type": "in vivo, Gallus gallus domesticus",
  "details": "LC, PFOA 50 μg/egg",
  "protocol": "Controls were injected with 20 μL vehicle only (DMSO).\nPlasma was collected and stored at -70°C.\nMetabolites in allantoic fluid and blood plasma were analyzed using gas chromatography-mass spectrometry (GC-MS) and liquid chromatography-mass spectrometry (LC-MS) as described in S1 Methods. Prior to GC-MS and LC-MS analysis, allantoic fluid (100 μL) and blood plasma (50 μL) were extracted. To each sample, 900 μL (allantoic fluid) or 450 μL (blood plasma) of extraction buffer (90/10 v/v methanol:water) including all internal standards were added. Standards for GC-MS were proline, succinic acid, glutamic acid, salicylic acid, alpha-ketoglutarate, putrescine, myristic acid, hexadecanoic acid, cholesterol, and sucrose. Standards for LC-MS were Val-Tyr-Val, Leu-enkephalin, sulfadimethoxine and reserpine. Samples were homogenized by shaking in a bead mill at a frequency of 30 Hz for 3 minutes and proteins were precipitated at +4°C on ice. The samples were centrifuged at +4°C, 14000 rpm, for 10 min. Then, 200 μL supernatant was transferred to a GC microvial and 200 μL was transferred to an LC microvial, and solvents were evaporated. Samples from the four replicate experiments were analyzed using in chronological order and within each replicate experiment the run order of the individual samples was randomized.\nMultivariate statistical analyses of metabolite profiles were performed using the software package SIMCA-P version 13.0 (Umetrics, Umeå, Sweden). Data was centered and scaled to variance 1 (UV scaling) prior to modelling. To reduce unintended systematic variation caused by sample processing and instrument drift, GC-MS and LC-MS metabolite amounts (expressed as the area under the chromatographic peak) were normalized by Orthogonal Partial Least Squares analysis (O2PLS) prior to multivariate data analysis. O2PLS finds common (predictive) and unique (orthogonal) variation in two data matrices. If applied to find the common variation between the data matrix containing the measured metabolite concentrations and a matrix containing only the internal standards, the only common (predictive) variation expected is due to the unintended systematic variation. By deleting the contribution of the predictive latent variables, that variation can be removed from the data. Models obtained after this normalization contain in general less latent variables, and this simplification helps when deciding on the number of latent variables to be used. Following normalization, GC-MS and LC-MS data were analyzed together. Initially, a global Principal Component Analysis (PCA) was performed to get an overview of groups and trends and to identify outliers. Projections to latent structures by means of Orthogonal Partial Least Squares Discriminant Analysis (OPLS-DA) was used to model the relationship between the X-matrix (metabolite concentrations) and the Y matrix (class, i.e. exposure group or sex), and to find x-variables that were related to class belonging. OPLS-DA is a supervised prediction and regression method that rotates the projection plane to find the maximum covariance between the data and the class assignment. All groups were first analyzed together in a 5-class OPLS-DA and then each exposure group was analyzed against the control group in a 2-class OPLS-DA. Sex differences were analyzed both using the whole data set and in each group separately using 2-class OPLS-DA, with females and males as the two classes. Only variables with 80% or more nonzero values were included in the statistical models. […] The validity of each model was also checked using CV-ANOVA (ANOVA of the cross-validated residuals). A significance level of p < 0.05 was used. For each model, R ^2 X, R ^2 Y and Q ^2 values were calculated, where R ^2 X is a measure of the fraction of x variation modeled in the extracted latent variables, R ^2 Y is a measure of the fraction of y variation modeled and Q ^2 is an estimate of the predictive ability of the model and is calculated by cross-validation. […]",
  "note": "Marks after values point to notes of the source that are not given here.",
  "data": [
    {"smiles": "O=C(O)C(F)(F)C(F)(F)C(F)(F)C(F)(F)C(F)(F)C(F)(F)C(F)(F)F", "note": "[PFOA, perfluorooctanoic acid]", "values": [
      {"measurement": "Mean concentration relative to control, feature 197.0639@2.1181405", "value": 1.0},
      {"measurement": "Mean concentration relative to control, feature 201.012@3.046474", "value": 1.0},
      {"measurement": "Mean concentration relative to control, feature 202.0429@2.9548414", "value": 1.0},
      {"measurement": "Mean concentration relative to control, feature 205.0533@4.421879", "value": 1.0},
      {"measurement": "Mean concentration relative to control, feature 214.016@2.1190732", "value": 1.1},
      {"measurement": "Mean concentration relative to control, feature 226.0107@4.421457", "value": 1.0},
      {"measurement": "Mean concentration relative to control, feature 236.0816@3.0720985", "value": 1.0},
      {"measurement": "Mean concentration relative to control, feature 241.0551@2.3510706", "value": 0.9},
      {"measurement": "Mean concentration relative to control, feature 243.1118@2.1537287", "value": 1.0},
      {"measurement": "Mean concentration relative to control, feature 244.9972@4.421603", "value": 1.0},
      {"measurement": "Mean concentration relative to control, feature 245.1563@2.2907295", "value": "0.8*"},
      {"measurement": "Mean concentration relative to control, feature 250.0981@3.072492", "value": 1.0},
      {"measurement": "Mean concentration relative to control, feature 262.0978@2.7961144", "value": 1.0},
      {"measurement": "Mean concentration relative to control, feature 263.0855@2.2847009", "value": 1.0},
      {"measurement": "Mean concentration relative to control, feature 270.0441@1.1407775", "value": 0.8},
      {"measurement": "Mean concentration relative to control, feature 278.0928@3.0723689", "value": 1.0},
      {"measurement": "Mean concentration relative to control, feature 279.1248@2.796395", "value": 1.0},
      {"measurement": "Mean concentration relative to control, feature 280.1425@2.730277", "value": 1.0},
      {"measurement": "Mean concentration relative to control, feature 288.1166@2.9551322", "value": 1.1},
      {"measurement": "Mean concentration relative to control, feature 289.1012@3.249983", "value": 1.0},
      {"measurement": "Mean concentration relative to control, feature 289.173@7.5030584", "value": 1.1},
      {"measurement": "Mean concentration relative to control, feature 294.1242@2.3692534", "value": 1.0},
      {"measurement": "Mean concentration relative to control, feature 302.0508@3.0722616", "value": 1.0},
      {"measurement": "Mean concentration relative to control, feature 305.1682@5.353517", "value": "0.8*"},
      {"measurement": "Mean concentration relative to control, feature 305.1684@5.2955093", "value": 0.8},
      {"measurement": "Mean concentration relative to control, feature 308.073@4.4211636", "value": 1.0},
      {"measurement": "Mean concentration relative to control, feature 310.1181@1.5090439", "value": 1.0},
      {"measurement": "Mean concentration relative to control, feature 316.0389@3.0725708", "value": 1.0},
      {"measurement": "Mean concentration relative to control, feature 320.0626@3.0729218", "value": 1.0},
      {"measurement": "Mean concentration relative to control, feature 325.1114@2.1190624", "value": 0.9},
      {"measurement": "Mean concentration relative to control, feature 325.1115@2.3554378", "value": 0.9},
      {"measurement": "Mean concentration relative to control, feature 333.1335@2.8639288", "value": 0.9},
      {"measurement": "Mean concentration relative to control, feature 333.2005@6.5291867", "value": 0.9},
      {"measurement": "Mean concentration relative to control, feature 335.1866@4.508565", "value": 1.0},
      {"measurement": "Mean concentration relative to control, feature 337.1651@1.8737898", "value": 0.9},
      {"measurement": "Mean concentration relative to control, feature 344.1424@2.348947", "value": 0.9},
      {"measurement": "Mean concentration relative to control, feature 348.0553@3.0730357", "value": 1.0},
      {"measurement": "Mean concentration relative to control, feature 349.1651@2.4087605", "value": 0.9},
      {"measurement": "Mean concentration relative to control, feature 357.1997@6.9691257", "value": 0.9},
      {"measurement": "Mean concentration relative to control, feature 371.1513@3.0009465", "value": 1.0},
      {"measurement": "Mean concentration relative to control, feature 375.1819@3.672254", "value": 0.9},
      {"measurement": "Mean concentration relative to control, feature 394.167@3.9552917", "value": 0.8},
      {"measurement": "Mean concentration relative to control, feature 414.1482@2.118972", "value": 1.0}
    ]}
  ]
}
